Source: patent US11384099B2, “Pyrazolopyridinone compounds” (Janssen Pharmaceutica NV, priority 2017, dated 2022)

Columns and labels:
[1] = target: T1, human FGFR3 wild type enzyme (cytoplasmic domain) (Homo sapiens, UniProt P22607); experiment: FGFR3 wild type mobility shift assay (enzymatic assay, Caliper); format: biochemical; conditions: 75 μM ATP, 50 minutes at 30° C.
T1 construct: human FGFR3 wild type enzyme (cytoplasmic domain, from Cama Biosciences); purchased Carna Biosciences
Method: FGFR3 Wild Type Mobility Shift Assay (Enzymatic Assay)
(§1) In a final reaction volume of 25 μL, 0.04 ng/μL human FGFR3 wild type enzyme (cytoplasmic domain, from Cama Biosciences) was incubated with 75 μM ATP, 1 μM FL-peptide 30 substrate and 250 nL of testing compound (1% DMSO final) in assay buffer (100 mM HEPES pH 7.4, 10 mM MgCl2, 0.003% Brij35, 1 mM DTT). After incubation for 50 minutes at 30° C. the reaction was stopped with 10 μL of 0.5M EDTA pH 8.0, and then L of reaction mixture was transferred to reading plate and measured on Caliper EZ reader II.

[2] = target: T2, human FGFR3 V555M enzyme (cytoplasmic domain carrying V555M mutation) (Homo sapiens, UniProt P22607, V555M); experiment: FGFR3 V555M mobility shift assay (enzymatic assay, Caliper); format: biochemical; conditions: 30 μM ATP, 45 minutes at 30° C.
T2 construct: cytoplasmic domain carrying V555M mutation, from Carna Biosciences; purchased Carna Biosciences
Method: FGFR3 V555M Mobility Shift Assay (Enzymatic Assay)
as §1, with “FGFR3 V555M” for “FGFR3 wild type”, “(cytoplasmic domain carrying V555M mutation,” for “(cytoplasmic domain,”, “from Carna” for “from Cama”, “with 30” for “with 75”, “for 45” for “for 50”

[3] = system: NIH/3T3 cells transfected with control vector (MOCK); experiment: NIH/3T3 mock cell proliferation assay (CTG, counter assay); format: cell-based; conditions: Mus musculus, NIH3T3; 72-hr incubation, CellTiter Glo; counter assay for general toxicity
Method: NIH/3T3 Mock Cell Proliferation Assay
(§2) In day 1, 90 μL of cell suspension (NIH/3T3 cells transfected with the same control vector as in the above two proliferation assays) (total 30,000 cells per well in growth medium (DMEM containing 1% Glutamax, 10% FBS and 1% Pen/Strep)) was seeded in a 96-well plate and then incubated overnight at 37° C. and 5% CO2. In day 2, 10 μL of growth medium containing 10-fold stock solution of testing compound was added into cell cultures (9 dose points with 3× serial dilution, starting with 30 μM, 0.3% DMSO final). After 72-hr incubation at 37° C. and 5% CO2, in day 5 a volume of 50 μL CellTiter Glo (CTG) reagent was added into cell-containing 96-well plate and the plate was incubated at room temperature for 10 minutes before RLUs (relative light unit) were measured on a microplate reader with luminescence detection module. The RLU value was normalized to survival % and concentration-response curve was plotted using Prism to calculate IC50 (M), pIC50 (−log IC50) and HillSlope value.

[4] = target: T3, NIH/3T3 cells overexpressing FGFR3 WT-TACC3 fusion protein (Homo sapiens, UniProt P22607); experiment: NIH/3T3 FGFR3 WT-TACC3 cell proliferation assay (CTG); format: cell-based; conditions: 72-hr incubation, CellTiter Glo; read-out: NIH/3T3 FGFR3 WT-TACC3 CTG (IC50)
T3 construct: NIH/3T3 FGFR3 WT-TACC3 CTG (IC50); other: 72-hr incubation, CellTiter Glo; fused on or other part: C-terminal coiled-coil part of TACC3 (part of the key, as a fusion known from patients); Q9Y6A5 (Transforming acidic coiled-coil-containing protein 3)
Method: NIH/3T3 FGFR3 WT-TACC3 Cell Proliferation Assay
as §2, with “cells overexpressing FGFR3 WT-TACC3 fusion protein)” for “cells transfected with the same control vector as in the above two proliferation assays)”, “with 4×” for “with 3×”, “with 10” for “with 30”, “μM, 0.1%” for “μM, 0.3%”

T1 sequence (P22607 397-806 limits assumed): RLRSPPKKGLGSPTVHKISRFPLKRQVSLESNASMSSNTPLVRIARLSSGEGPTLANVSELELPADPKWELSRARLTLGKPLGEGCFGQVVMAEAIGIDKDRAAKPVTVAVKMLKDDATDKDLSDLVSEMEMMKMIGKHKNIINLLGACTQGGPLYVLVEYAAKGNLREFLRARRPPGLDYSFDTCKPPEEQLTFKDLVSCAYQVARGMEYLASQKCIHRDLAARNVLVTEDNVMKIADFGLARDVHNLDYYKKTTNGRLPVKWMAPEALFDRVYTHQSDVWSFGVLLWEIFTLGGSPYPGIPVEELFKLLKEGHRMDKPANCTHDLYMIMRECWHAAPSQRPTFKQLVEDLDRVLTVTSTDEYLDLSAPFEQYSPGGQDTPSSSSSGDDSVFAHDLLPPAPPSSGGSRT
T2 sequence (P22607 397-806 V555M limits assumed): as the sequence (P22607 397-806 limits assumed) above, with V159M counted along it
T3 sequence (P22607 whole entry, change not shown, the tested form may be a part): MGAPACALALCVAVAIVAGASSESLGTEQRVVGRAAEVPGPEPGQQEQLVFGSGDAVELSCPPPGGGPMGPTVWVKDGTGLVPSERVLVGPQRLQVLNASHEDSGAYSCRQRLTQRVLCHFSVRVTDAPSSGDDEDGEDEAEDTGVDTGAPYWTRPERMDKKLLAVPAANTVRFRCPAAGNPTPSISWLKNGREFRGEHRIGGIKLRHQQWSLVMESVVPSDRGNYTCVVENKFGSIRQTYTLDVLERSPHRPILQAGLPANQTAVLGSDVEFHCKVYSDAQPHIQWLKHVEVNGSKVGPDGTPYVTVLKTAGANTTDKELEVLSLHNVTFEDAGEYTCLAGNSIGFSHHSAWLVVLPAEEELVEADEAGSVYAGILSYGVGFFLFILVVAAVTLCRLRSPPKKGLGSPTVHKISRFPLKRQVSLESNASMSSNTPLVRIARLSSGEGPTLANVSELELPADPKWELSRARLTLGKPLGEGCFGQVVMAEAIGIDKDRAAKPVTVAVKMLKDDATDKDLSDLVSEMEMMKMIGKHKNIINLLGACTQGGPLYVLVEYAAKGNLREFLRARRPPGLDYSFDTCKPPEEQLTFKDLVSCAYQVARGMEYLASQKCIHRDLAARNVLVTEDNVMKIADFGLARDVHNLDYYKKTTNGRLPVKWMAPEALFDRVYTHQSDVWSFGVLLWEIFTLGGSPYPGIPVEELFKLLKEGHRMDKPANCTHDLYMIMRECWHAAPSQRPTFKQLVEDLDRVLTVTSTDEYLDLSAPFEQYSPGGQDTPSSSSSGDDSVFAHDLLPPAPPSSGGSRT

| SMILES | IC50 [1] | IC50 [2] | GI50 [4] | IC50 [3] |
| --- | --- | --- | --- | --- |
| COc1cnc2nc(-c3c(NC(c4ncccn4)C(C)C)c4nn(C)cc4[nH]c3=O)[nH]c2c1 (single isomer, unassigned) [Compound 40, (S*)-6-(6-methoxy-1H-imidazo[4,5-b]pyridin-2-yl)-2-methyl-7-((2-methyl-1-(pyrimidin-2-yl)propyl)amino)-2,4-dihydro-5H-pyrazolo[4,3-b]pyridin-5-one] | 5.93 nM | 0.743 nM |  | 1740 nM |
| CCC(Nc1c(-c2nc3cc(OC)c(OC)cc3[nH]2)c(=O)[nH]c2cn(CC)nc12)c1ncccn1 (single isomer, unassigned) [Compound 44, (S*)-6-(5,6-dimethoxy-1H-benzo[d]imidazol-2-yl)-2-ethyl-7-((1-(pyrimidin-2-yl)propyl)-amino)-2H-pyrazolo[4,3-b]pyridin-5 (4H)-one] | 3.1 nM | 1.17 nM |  | 2300 nM |
| COc1cc2nc(-c3c(NC(c4ncccn4)C4CC4)c4nn(C)cc4[nH]c3=O)[nH]c2cc1OC (single isomer, unassigned) [Compound 46, (S*)-7-((cyclopropyl(pyrimidin-2-yl)methyl)amino)-6-(5,6-dimethoxy-1H-benzo[d]-imidazol-2-yl)-2-methyl-2H-pyrazolo[4,3-b]pyridin-5 (4H)-one] | 2.44 nM | 0.566 nM |  | 682 nM |
| COc1cc(F)c2nc(-c3c(N[C@@H](C)c4ncccn4)c4nn(C)cc4[nH]c3=O)[nH]c2c1 [Compound 2, (S)-6-(4-fluoro-6-methoxy-1H-benzo[d]imidazol-2-yl)-2-methyl-7-((1-(pyrimidin-2-yl)-ethyl)amino)-2H-pyrazolo[4,3-b]pyridin-5 (4H)-one] | 2.88 nM | 0.791 nM |  | 2380 nM |
| CCn1cc2[nH]c(=O)c(-c3nc4ccc(OC)cc4[nH]3)c(N[C@@H](C)c3ncccn3)c2n1 [Compound 4, (S)-2-ethyl-6-(6-methoxy-1H-benzo[d]imidazol-2-yl)-7-((1-(pyrimidin-2-yl)ethyl)amino)-2H-pyrazolo[4,3-b]pyridin-5 (4H)-one] | 3.36 nM | 0.998 nM |  | 735 nM |
| CC[C@H](Nc1c(-c2nc3cnc(N(C)C)cc3[nH]2)c(=O)[nH]c2cn(C)nc12)c1ncccn1 [Compound 22, (S)-6-(6-(dimethylamino)-1H-imidazo[4,5-c]pyridin-2-yl)-2-methyl-7-((1-(pyrimidin-2-yl)propyl)amino)-2H-pyrazolo[4,3-b]pyridin-5 (4H)-one] | 3.62 nM | 0.743 nM |  | 1250 nM |
| CCn1cc2[nH]c(=O)c(-c3nc4c(OC)cccc4[nH]3)c(N[C@@H](C)c3ncccn3)c2n1 [Compound 32, (S)-2-ethyl-6-(4-methoxy-1H-benzo[d]imidazol-2-yl)-7-((1-(pyrimidin-2-yl)ethyl)amino)-2H-pyrazolo[4,3-b]pyridin-5 (4H)-one] | 5.45 nM | 2.03 nM |  | 1490 nM |
| CCn1cc2[nH]c(=O)c(-c3nc4c(F)c(OC)c(OC)cc4[nH]3)c(N[C@@H](C)c3ncccn3)c2n1 [Compound 41, (S)-2-ethyl-6-(4-fluoro-5,6-dimethoxy-1H-benzo[d]imidazol-2-yl)-7-((1-(pyrimidin-2-yl)-ethyl)amino)-2H-pyrazolo[4,3-b]pyridin-5 (4H)-one] | 3.8 nM | 1.11 nM |  | 2280 nM |
| CCOc1ccc2nc(-c3c(N[C@@H](C)c4ncccn4)c4nn(CC)cc4[nH]c3=O)[nH]c2c1 [Compound 50, (S)-6-(6-ethoxy-1H-benzo[d]imidazol-2-yl)-2-ethyl-7-((1-(pyrimidin-2-yl)ethyl)amino)-2,4-dihydro-5H-pyrazolo[4,3-b]pyridin-5-one] | 2.96 nM | 0.576 nM |  | 1100 nM |

Compounds with a lower IC50 [1], results first:

| IC50 [1] | IC50 [2] | GI50 [4] | SMILES | IC50 [3] |
| --- | --- | --- | --- | --- |
| 2.16 nM | 0.407 nM | 12.5 nM | CCC(Nc1c(-c2nc3cc(OC)c(OC)cc3[nH]2)c(=O)[nH]c2cn(C)nc12)c1ncccn1 (single isomer, unassigned) [Compound 42, (S*)-6-(5,6-dimethoxy-1H-benzo[d]imidazol-2-yl)-2-methyl-7-((1-(pyrimidin-2-yl)-propyl)amino)-2H-pyrazolo[4,3-b]pyridin-5 (4H)-one] | 591 nM |
| 1.89 nM | 0.517 nM |  | COc1cc(OC)c2nc(-c3c(N[C@@H](C)c4ncccn4)c4nn(C)cc4[nH]c3=O)[nH]c2c1 [Compound 29, (S)-6-(4,6-Dimethoxy-1H-benzo[d]imidazol-2-yl)-2-methyl-7-((1-(pyrimidin-2-yl)ethyl)-amino)-2H-pyrazolo[4,3-b]pyridin-5 (4H)-one] | 809 nM |
| 1.83 nM | 0.673 nM |  | CCn1cc2[nH]c(=O)c(-c3nc4cc(OC)c(OC)cc4[nH]3)c(N[C@@H](C)c3ncccn3)c2n1 [Compound 6, (S)-6-(5,6-Dimethoxy-1H-benzo[d]imidazol-2-yl)-2-ethyl-7-((1-(pyrimidin-2-yl)ethyl)-amino)-2H-pyrazolo[4,3-b]pyridin-5 (4H)-one] | 800 nM |
| 1.67 nM | 0.361 nM |  | COc1cnc2nc(-c3c(N[C@@H](C)c4ncccn4)c4nn(C)cc4[nH]c3=O)[nH]c2c1 [Compound 3, (S)-6-(6-methoxy-1H-imidazo[4,5-b]pyridin-2-yl)-2-methyl-7-((1-(pyrimidin-2-yl)-ethyl)amino)-2H-pyrazolo[4,3-b]pyridin-5 (4H)-one] | 776 nM |
| 1.64 nM | 0.562 nM |  | CCn1cc2[nH]c(=O)c(-c3nc4ccc(OCCOC)cc4[nH]3)c(N[C@@H](C)c3ncccn3)c2n1 [Compound 54, (S)-2-ethyl-6-(6-(2-methoxyethoxy)-1H-benzo[d]imidazol-2-yl)-7-((1-(pyrimidin-2-yl)-ethyl)amino)-2H-pyrazolo[4,3-b]pyridin-5 (4H)-one] | 689 nM |
| 1.15 nM | 0.376 nM |  | CCOc1cc2[nH]c(-c3c(N[C@@H](C)c4ncccn4)c4nn(CC)cc4[nH]c3=O)nc2cc1OC [Compound 8, (S)-6-(6-ethoxy-5-methoxy-1H-benzo[d]imidazol-2-yl)-2-ethyl-7-((1-(pyrimidin-2-yl)-ethyl)amino)-2H-pyrazolo[4,3-b]pyridin-5 (4H)-one] | 766 nM |
| 1.13 nM | 0.414 nM |  | COc1cc2[nH]c(-c3c(N[C@@H](C)c4ncccn4)c4nn(C)cc4[nH]c3=O)nc2cn1 [Compound 30, (S)-6-(6-methoxy-1H-imidazo[4,5-c]pyridin-2-yl)-2-methyl-7-((1-(pyrimidin-2-yl)ethyl)-amino)-2H-pyrazolo[4,3-b]pyridin-5 (4H)-one] | 1200 nM |
| 0.554 nM | 0.298 nM |  | CCOc1cc2nc(-c3c(N[C@@H](C)c4ncccn4)c4nn(C)cc4[nH]c3=O)[nH]c2cc1OCC [Compound 53, (S)-6-(5,6-diethoxy-1H-benzo[d]imidazol-2-yl)-2-methyl-7-((1-(pyrimidin-2-yl)ethyl)-amino)-2,4-dihydro-5H-pyrazolo[4,3-b]pyridin-5-one] | 535 nM |
